{"source": "patent US20060002911A1", "about": "“Association between a ppar ligand and an antioxidant agent and use thereof for treating obesity” (priority 2002, published 2006)", "conditions": "ob/ob mice, intraperitoneal route once a day for 14 days", "procedure": "Male C57 Black 6 ob/ob mice from 8 to 12 weeks old were used. […] After being weighed, the mice were treated with rosiglitazone (antidiabetic agent) on its own or in association with coenzyme Q10. […] In addition, the solution was pre-heated before injection. The mice were weighed every day and the weight obtained after 14 days of treatment was recorded."}
{"smiles": "CN(CCOc1ccc(CC2SC(=O)NC2=O)cc1)c1ccccn1", "note": "(centres unmarked) [rosiglitazone]", "values": [{"measurement": "increase in the weight of the mice", "value": "greater than or equal to 5 grams"}, {"measurement": "increase in weight relative to initial weight", "setting": "more than initial weight", "value": "about 10%"}]}
